# Measured values as given in patent US11566007B2, “Ras inhibitors” (Revolution Medicines, Inc., priority 2019, dated 2023).
# “And” between values parts separate entries of the source, which are not always exact repeats. Identical values can stand only once.
# Key:
# KRAS WT = KRAS WT (Homo sapiens (Human), UniProt P01116+P62937); assay: Ras-Raf (BRAF RBD) disruption / FRET / MOA assay, KRAS WT; assay type: biochemical; conditions: read-out: IC50* KRAS WT FRET data
# Summary of the method: (§1)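 Compounds, top final concentration 30 μM in 10-point 3-fold series, incubated 3 hours at 25° C with nucleotide-loaded Ras, cyclophilin A and BRAF RBD.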
# K-Ras G12C = K-Ras G12C (Homo sapiens (Human), UniProt P01116+P62937, G12C); assay: Ras-Raf (BRAF RBD) disruption / FRET / MOA assay, KRAS G12C; assay type: biochemical; conditions: KRAS G12C; Ras-Raf disruption/FRET/MOA assay; read-out: IC50* KRAS G12C FRET data
# K-Ras G12C, sequence (P01116-2 other isoform, or with tags, fused parts or gaps G12C): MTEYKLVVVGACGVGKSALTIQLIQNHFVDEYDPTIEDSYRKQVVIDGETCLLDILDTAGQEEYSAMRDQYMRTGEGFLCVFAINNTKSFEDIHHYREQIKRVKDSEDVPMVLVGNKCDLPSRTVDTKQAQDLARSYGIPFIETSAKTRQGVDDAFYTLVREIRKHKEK
# K-Ras G12C, sequence (P62937 whole entry): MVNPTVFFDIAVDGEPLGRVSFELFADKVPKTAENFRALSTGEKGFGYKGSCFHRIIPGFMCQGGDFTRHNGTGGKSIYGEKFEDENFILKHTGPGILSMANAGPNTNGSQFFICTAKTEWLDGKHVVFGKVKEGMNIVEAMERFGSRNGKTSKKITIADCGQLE
# Summary of the method: as §1
# KRAS G13D = KRAS G13D (Homo sapiens (Human), UniProt P01116+P62937, G13D); assay: Ras-Raf (BRAF RBD) disruption / FRET / MOA assay, KRAS G13D; assay type: biochemical; conditions: read-out: IC50* KRAS G13D FRET data
# KRAS G13D, sequence (P01116-2 other isoform, or with tags, fused parts or gaps G13D): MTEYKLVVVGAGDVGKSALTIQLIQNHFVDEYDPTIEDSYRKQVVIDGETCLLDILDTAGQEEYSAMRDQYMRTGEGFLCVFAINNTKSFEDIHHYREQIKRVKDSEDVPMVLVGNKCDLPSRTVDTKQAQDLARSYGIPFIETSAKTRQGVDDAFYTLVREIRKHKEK
# KRAS G13D, sequence (P62937 whole entry): as the sequence (P62937 whole entry) above
# Summary of the method: as §1
# KRAS G12V = KRAS G12V (Homo sapiens (Human), UniProt P01116+P62937, G12V); assay: Ras-Raf (BRAF RBD) disruption / FRET / MOA assay, KRAS G12V; assay type: biochemical; conditions: read-out: IC50* KRAS G12V FRET data
# KRAS G12V, sequence (P01116-2 other isoform, or with tags, fused parts or gaps G12V): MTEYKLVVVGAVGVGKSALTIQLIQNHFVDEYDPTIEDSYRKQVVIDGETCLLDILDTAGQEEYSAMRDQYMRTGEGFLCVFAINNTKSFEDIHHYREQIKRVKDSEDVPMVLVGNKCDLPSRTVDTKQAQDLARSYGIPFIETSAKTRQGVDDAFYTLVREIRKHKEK
# KRAS G12V, sequence (P62937 whole entry): as the sequence (P62937 whole entry) above
# Summary of the method: as §1
# K-Ras G13C = K-Ras G13C (Homo sapiens (Human), UniProt P01116+P62937, G13C); assay: Ras-Raf (BRAF RBD) disruption / FRET / MOA assay, KRAS G13C; assay type: biochemical; conditions: KRAS G13C; Ras-Raf disruption/FRET/MOA assay; read-out: IC50* KRAS G13C FRET data
# K-Ras G13C, sequence (P01116-2 other isoform, or with tags, fused parts or gaps G13C): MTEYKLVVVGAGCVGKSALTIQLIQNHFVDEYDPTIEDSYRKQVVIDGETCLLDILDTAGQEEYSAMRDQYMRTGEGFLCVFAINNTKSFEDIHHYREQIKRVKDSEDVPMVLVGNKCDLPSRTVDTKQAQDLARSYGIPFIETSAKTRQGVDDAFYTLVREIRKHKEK
# K-Ras G13C, sequence (P62937 whole entry): as the sequence (P62937 whole entry) above
# Summary of the method: as §1
# NCI-H358 (K-Ras G12C) = assay: CellTiter-Glo cell viability assay, NCI-H358; assay type: cell-based, human; conditions: Homo sapiens, NCI-H358, 120 h, NCI-H358, 5-day treatment; class symbols; read-out: Additional H358 Cell Viability assay data (K-Ras G12C, IC50)
# Summary of the method: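 Cells seeded, compound added directly, 5-day exposure. Plates to RT ~30 min, CellTiter-Glo luminescence read. Normalized to DMSO avg (x100); 4-parameter logistic fit.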
# KRAS G12D = KRAS G12D (Homo sapiens (Human), UniProt P01116+P62937, G12D); assay: Ras-Raf (BRAF RBD) disruption / FRET / MOA assay, KRAS G12D; assay type: biochemical; conditions: Ras-Raf disruption/FRET/MOA assay; class symbols; read-out: KRAS G12D FRET data IC50
# KRAS G12D, sequence (P01116-2 other isoform, or with tags, fused parts or gaps G12D): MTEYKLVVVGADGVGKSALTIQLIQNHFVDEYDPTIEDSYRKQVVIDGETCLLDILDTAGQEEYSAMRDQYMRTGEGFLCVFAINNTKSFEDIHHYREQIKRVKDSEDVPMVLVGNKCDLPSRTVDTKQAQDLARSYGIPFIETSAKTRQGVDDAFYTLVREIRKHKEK
# KRAS G12D, sequence (P62937 whole entry): as the sequence (P62937 whole entry) above
# Summary of the method: as §1
# KRAS G12S = KRAS G12S (Homo sapiens (Human), UniProt P01116+P62937, G12S); assay: Ras-Raf (BRAF RBD) disruption / FRET / MOA assay, KRAS G12S; assay type: biochemical; conditions: Ras-Raf disruption/FRET/MOA assay; class symbols; read-out: KRAS G12S FRET data IC50
# KRAS G12S, sequence (P01116-2 other isoform, or with tags, fused parts or gaps G12S): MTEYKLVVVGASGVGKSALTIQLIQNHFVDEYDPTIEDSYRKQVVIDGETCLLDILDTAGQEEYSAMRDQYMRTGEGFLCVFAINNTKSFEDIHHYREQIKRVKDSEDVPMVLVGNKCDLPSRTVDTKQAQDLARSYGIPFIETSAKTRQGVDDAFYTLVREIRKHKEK
# KRAS G12S, sequence (P62937 whole entry): as the sequence (P62937 whole entry) above
# Summary of the method: as §1
# [1] = test system: NCI-H358 cells (K-Ras G12C); assay: Potency assay: pERK in NCI-H358 cells; assay type: cell-based, human; conditions: Homo sapiens, NCI-H358; H358 KRAS G12C; read-out: pERK EC50
# Summary of the method: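 pERK decrease read by AlphaLISA SureFire p-ERK1/2 or In-Cell Western after 4 h compound exposure at 37 °C, 5% CO2.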
# NRAS G12C = NRAS G12C (Homo sapiens (Human), UniProt P01111+P62937, G12C); assay: Ras-Raf (BRAF RBD) disruption / FRET / MOA assay, NRAS G12C; assay type: biochemical; conditions: read-out: IC50* NRAS G12C FRET data
# NRAS G12C, sequence (P01111 whole entry G12C): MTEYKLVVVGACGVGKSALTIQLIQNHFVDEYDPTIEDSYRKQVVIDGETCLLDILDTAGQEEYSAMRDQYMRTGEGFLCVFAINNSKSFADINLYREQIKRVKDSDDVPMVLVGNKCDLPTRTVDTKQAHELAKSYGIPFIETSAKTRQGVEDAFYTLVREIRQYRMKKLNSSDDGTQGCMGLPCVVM
# NRAS G12C, sequence (P62937 whole entry): as the sequence (P62937 whole entry) above
# Summary of the method: as §1
# KRAS WT, sequence (P01116-2 other isoform, or with tags, fused parts or gaps): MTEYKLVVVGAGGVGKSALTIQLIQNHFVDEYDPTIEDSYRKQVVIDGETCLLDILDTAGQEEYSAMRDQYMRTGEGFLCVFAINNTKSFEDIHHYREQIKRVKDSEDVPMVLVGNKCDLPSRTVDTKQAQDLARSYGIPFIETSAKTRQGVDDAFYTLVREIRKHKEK
# KRAS WT, sequence (P62937 whole entry): as the sequence (P62937 whole entry) above
SMILES,IC50 (KRAS WT),IC50 (K-Ras G12C) [nM],IC50 (KRAS G13D),IC50 (KRAS G12V),IC50 (K-Ras G13C),IC50 (NCI-H358 (K-Ras G12C)) [nM],IC50 (KRAS G12D),IC50 (KRAS G12S),EC50 [1] [nM],IC50 (NRAS G12C) [nM]
"C=CC(=O)N1C[C@@H](C)N(C(=O)N(C)[C@H](C(=O)N[C@H]2Cc3nc(cs3)-c3ccc4c(c3)c(c(-c3cccnc3[C@H](C)OC)n4CC)CC(C)(C)COC(=O)[C@@H]3CCCN(N3)C2=O)C(C)C)C[C@@H]1C (atropisomer, axis not shown) [Example A418]",10 to 100 nM,10 to 100,100 to 1000 nM,10 to 100 nM,10 to 100 nM,10 to 100,100 to 1000 nM,10 to 100 nM,< 5000,10 to 100
CCn1c(-c2cnccc2COC)c2c3cc(ccc31)-c1cncc(c1)C[C@H](NC(=O)[C@H](C(C)C)N(C)C(=O)[C@H]1CCN(C(=O)C#CCN(C)C)C1)C(=O)N1CCC[C@H](N1)C(=O)OCC(C)(C)C2 [Example A139],> 10000 nM,10 to 100,> 10000 nM,> 10000 nM,1000 to 10000 nM,100 to 1000,1000 to 10000 nM,> 10000 nM,< 5000,100 to 1000
C=CC(=O)N1C[C@@H](C(=O)N(C)[C@H](C(=O)N[C@H]2Cc3cc(O)cc(c3)-c3ccc4c(c3)c(c(-c3cccnc3COC)n4CC)CC(C)(C)COC(=O)[C@@H]3CCCN(N3)C2=O)C(C)C)C[C@H]1C [Example A158],100 to 1000 nM,10 to 100,100 to 1000 nM,1000 to 10000 nM,100 to 1000 nM,10 to 100,> 10000 nM,100 to 1000 nM,< 5000,10 to 100
"CCn1c(-c2cccnc2[C@H](C)OC)c2c3cc(ccc31)-c1cc(O)cc(c1)C[C@H](NC(=O)[C@H](C(C)C)N(C)C(=O)[C@H]1CCN(C(=O)C#C[C@@H]3CCCN3C)C1)C(=O)N1CCC[C@H](N1)C(=O)OCC(C)(C)C2 (atropisomer, axis not shown) [Example A247]",100 to 1000 nM and 1000 to 10000 nM,< 10,100 to 1000 nM and 1000 to 10000 nM,100 to 1000 nM and 1000 to 10000 nM,10 to 100 nM and < 10 nM,10 to 100,1000 to 10000 nM and 100 to 1000 nM,100 to 1000 nM and 1000 to 10000 nM,< 5000,< 10
"C=CC(=O)N1CC[C@H](C(=O)N(C)[C@H](C(=O)N[C@H]2Cc3csc(n3)-c3ccc4c(c3)c(c(-c3cccnc3[C@H](C)OC)n4CC(F)(F)F)CC(C)(C)COC(=O)[C@@H]3CCCN(N3)C2=O)C(C)C)C1 (atropisomer, axis not shown) [Example A455]",100 to 1000 nM,100 to 1000,1000 to 10000 nM,1000 to 10000 nM,100 to 1000 nM,10 to 100,1000 to 10000 nM,100 to 1000 nM,< 5000,100 to 1000
"CO[C@@H](C)c1ncccc1-c1c2c3cc(ccc3n1CC(F)(F)F)-c1nc(cs1)C[C@H](NC(=O)[C@H](C(C)C)N(C)C(=O)[C@H]1CCN(C(=O)C#CC(C)(C)N3CCC3)C1)C(=O)N1CCC[C@H](N1)C(=O)OCC(C)(C)C2 (atropisomer, axis not shown) [Example A454]",100 to 1000 nM,10 to 100,1000 to 10000 nM,1000 to 10000 nM,100 to 1000 nM,< 10,1000 to 10000 nM,1000 to 10000 nM,< 5000,10 to 100
CCn1c(-c2cccnc2[C@H](C)OC)c2c3cc(ccc31)-c1csc(n1)C[C@H](NC(=O)[C@H](C(C)C)N(C)C(=O)[C@H]1CCC(C(=O)/C=C/CN(C)C)C1)C(=O)N1CCC[C@H](N1)C(=O)OCC(C)(C)C2 (some centres unmarked) [Example A282],1000 to 10000 nM,100 to 1000,1000 to 10000 nM,1000 to 10000 nM,1000 to 10000 nM,10 to 100,1000 to 10000 nM,1000 to 10000 nM,< 5000,100 to 1000
"CCn1c(-c2ccccc2CN(C)C)c2c3cc(ccc31)-c1cc(O)cc(c1)C[C@H](NC(=O)[C@H](C(C)C)N(C)C(=O)c1ncc(NC(=O)/C=C/CN(C)C)s1)C(=O)N1CCC[C@H](N1)C(=O)OCC(C)(C)C2 (atropisomer, axis not shown) [Example A163]",1000 to 10000 nM,1000 to 10000,1000 to 10000 nM,> 10000 nM,10 to 100 nM,> 1000,1000 to 10000 nM,> 10000 nM,< 5000,1000 to 10000
"C=CC(=O)N1CCC(F)(C(=O)N(C)[C@H](C(=O)N[C@H]2Cc3cccc(c3)-c3ccc4c(c3)c(c(-c3cccnc3[C@H](C)OC)n4CC)CC(C)(C)COC(=O)[C@@H]3CCCN(N3)C2=O)C(C)C)CC1 (atropisomer, axis not shown) [Example A518]",100 to 1000 nM,10 to 100,100 to 1000 nM,100 to 1000 nM,100 to 1000 nM,< 10,1000 to 10000 nM,100 to 1000 nM,< 5000,10 to 100
"CCn1c(-c2cccnc2[C@H](C)OC)c2c3cc(ccc31)-c1cccc(c1)C[C@H](NC(=O)[C@H](C(C)C)N1CC[C@@]3(CCN(C(=O)C#CC(C)(C)N(C)C)C3)C1=O)C(=O)N1CCC[C@H](N1)C(=O)OCC(C)(C)C2 (atropisomer, axis not shown) [Example A414]",> 10000 nM,< 10,> 10000 nM,1000 to 10000 nM,1000 to 10000 nM,< 10,> 10000 nM,1000 to 10000 nM,< 5000,< 10
"C=CC(=O)N1CC(C(=O)N(C)[C@H](C(=O)N[C@H]2Cc3cccc(c3)-c3ccc4c(c3)c(c(-c3cccnc3[C@H](C)OC)n4CC)CC(C)(C)COC(=O)[C@@H]3CCCN(N3)C2=O)C(C)C)C1 (atropisomer, axis not shown) [Example A467]",> 10000 nM,1000 to 10000,> 10000 nM,> 10000 nM,1000 to 10000 nM,10 to 100,> 10000 nM,> 10000 nM,< 5000,100 to 1000
C=CC(=O)N1CC[C@H](C(=O)N(C)[C@H](C(=O)N[C@H]2Cc3cc(O)cc(c3)-c3ccc4c(c3)c(c(-c3ccc(CN(C)C)nc3COC)n4CC)CC(C)(C)COC(=O)[C@@H]3CCCN(N3)C2=O)C(C)C)C1 [Example A103],1000 to 10000 nM,10 to 100,1000 to 10000 nM,100 to 1000 nM,1000 to 10000 nM,100 to 1000,1000 to 10000 nM,100 to 1000 nM,< 5000,10 to 100
C=CS(=O)(=O)N1CCC2(CCN([C@H](C(=O)N[C@H]3Cc4cc(O)cc(c4)-c4ccc5c(c4)c(c(-c4cccnc4[C@H](C)OC)n5CC)CC(C)(C)COC(=O)[C@@H]4CCCN(N4)C3=O)C(C)C)C2=O)C1 (some centres unmarked) [Example A298],10 to 100 nM,< 10,10 to 100 nM,10 to 100 nM,< 10 nM,< 10,100 to 1000 nM,10 to 100 nM,< 5000,< 10
C=CC(=O)N1CC[C@H](C(=O)N(C)[C@H](C(=O)N[C@H]2Cc3cc(O)cc(c3)-c3ccc4c(c3)c(c(-c3ccc(COC)cc3CN(C)C)n4CC)CC(C)(C)COC(=O)[C@@H]3CCCN(N3)C2=O)C(C)C)C1 [Example A127],1000 to 10000 nM,10 to 100,1000 to 10000 nM,100 to 1000 nM,100 to 1000 nM,100 to 1000,1000 to 10000 nM,100 to 1000 nM,< 5000,10 to 100
